One assay has as its target PIK3CD (Human) (UniProt O00329). The assay can be described thus: Assessment of PIK3CD Kinase Activity.
For a further assay, the target named is PIK3CG (human) (UniProt P48736). Put plainly: Assessment of PIK3CG Kinase Activity.
The next assay addresses PIK3CB (Human) (UniProt P42338). Put plainly: Assessment of PIK3CB Kinase Activity.
The target in another assay is PIK3CA (human) (UniProt P42336). Put plainly: Assessment of PIK3CA Kinase Activity.

The text below walks through data of the Kinase Knowledgebase extract (Sharma et al. 2016).

A word on the IC50: it is the concentration that gives 50% inhibition.

Sequence of PIK3CB (Human) (P42338 whole entry, looked up): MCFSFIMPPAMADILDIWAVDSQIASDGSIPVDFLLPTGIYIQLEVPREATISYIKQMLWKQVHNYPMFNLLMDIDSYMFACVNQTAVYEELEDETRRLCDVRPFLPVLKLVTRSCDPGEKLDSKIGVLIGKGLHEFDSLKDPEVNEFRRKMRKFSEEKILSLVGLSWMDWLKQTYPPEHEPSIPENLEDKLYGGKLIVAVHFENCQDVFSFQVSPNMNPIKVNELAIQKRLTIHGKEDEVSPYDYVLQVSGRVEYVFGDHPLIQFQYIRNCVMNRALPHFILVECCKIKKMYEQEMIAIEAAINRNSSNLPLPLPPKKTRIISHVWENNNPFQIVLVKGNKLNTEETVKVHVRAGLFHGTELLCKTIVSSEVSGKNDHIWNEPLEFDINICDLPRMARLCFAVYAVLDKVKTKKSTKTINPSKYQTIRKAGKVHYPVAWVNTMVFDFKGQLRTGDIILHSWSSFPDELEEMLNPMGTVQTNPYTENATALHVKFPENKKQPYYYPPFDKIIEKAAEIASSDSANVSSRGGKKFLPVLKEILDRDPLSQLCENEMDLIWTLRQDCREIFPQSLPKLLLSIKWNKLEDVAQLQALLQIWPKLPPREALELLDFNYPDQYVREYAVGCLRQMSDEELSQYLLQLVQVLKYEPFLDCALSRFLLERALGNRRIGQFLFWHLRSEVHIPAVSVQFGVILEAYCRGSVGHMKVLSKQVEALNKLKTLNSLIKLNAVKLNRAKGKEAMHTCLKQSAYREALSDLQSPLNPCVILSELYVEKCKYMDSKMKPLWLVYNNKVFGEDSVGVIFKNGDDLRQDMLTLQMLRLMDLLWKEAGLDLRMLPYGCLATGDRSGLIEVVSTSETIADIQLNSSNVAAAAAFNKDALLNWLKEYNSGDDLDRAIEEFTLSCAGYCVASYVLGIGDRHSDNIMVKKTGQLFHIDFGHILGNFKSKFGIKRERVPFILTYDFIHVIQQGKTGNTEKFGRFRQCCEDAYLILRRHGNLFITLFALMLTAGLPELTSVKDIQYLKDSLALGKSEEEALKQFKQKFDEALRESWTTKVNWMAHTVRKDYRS
Sequence of PIK3CD (Human) (O00329 whole entry, looked up): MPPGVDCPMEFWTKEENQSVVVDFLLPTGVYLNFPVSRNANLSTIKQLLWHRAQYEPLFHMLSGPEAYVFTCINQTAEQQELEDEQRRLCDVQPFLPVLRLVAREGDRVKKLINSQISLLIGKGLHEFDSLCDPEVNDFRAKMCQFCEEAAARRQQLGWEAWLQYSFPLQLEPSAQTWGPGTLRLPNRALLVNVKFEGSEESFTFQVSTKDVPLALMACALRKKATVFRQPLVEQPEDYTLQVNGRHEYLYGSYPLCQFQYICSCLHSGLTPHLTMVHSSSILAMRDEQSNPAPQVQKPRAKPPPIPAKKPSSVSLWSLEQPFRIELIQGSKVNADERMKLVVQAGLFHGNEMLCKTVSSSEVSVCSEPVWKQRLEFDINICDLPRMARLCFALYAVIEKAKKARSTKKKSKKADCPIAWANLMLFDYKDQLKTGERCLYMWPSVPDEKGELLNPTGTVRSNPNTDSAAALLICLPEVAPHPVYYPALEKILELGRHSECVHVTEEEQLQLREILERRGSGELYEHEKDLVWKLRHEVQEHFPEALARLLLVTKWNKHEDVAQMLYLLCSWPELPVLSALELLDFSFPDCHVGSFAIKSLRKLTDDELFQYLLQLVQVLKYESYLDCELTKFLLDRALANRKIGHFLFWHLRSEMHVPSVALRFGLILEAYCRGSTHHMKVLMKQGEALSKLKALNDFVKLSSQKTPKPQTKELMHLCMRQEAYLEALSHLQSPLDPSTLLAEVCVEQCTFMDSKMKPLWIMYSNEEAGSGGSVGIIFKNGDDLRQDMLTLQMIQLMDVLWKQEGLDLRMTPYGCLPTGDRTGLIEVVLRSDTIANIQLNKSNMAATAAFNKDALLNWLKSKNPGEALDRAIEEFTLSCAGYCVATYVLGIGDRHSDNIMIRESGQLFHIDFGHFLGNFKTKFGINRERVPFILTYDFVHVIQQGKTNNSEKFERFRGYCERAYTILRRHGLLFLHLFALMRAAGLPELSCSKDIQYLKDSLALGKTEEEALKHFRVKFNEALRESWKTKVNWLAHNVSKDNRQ
Sequence of PIK3CG (human) (P48736 whole entry, looked up): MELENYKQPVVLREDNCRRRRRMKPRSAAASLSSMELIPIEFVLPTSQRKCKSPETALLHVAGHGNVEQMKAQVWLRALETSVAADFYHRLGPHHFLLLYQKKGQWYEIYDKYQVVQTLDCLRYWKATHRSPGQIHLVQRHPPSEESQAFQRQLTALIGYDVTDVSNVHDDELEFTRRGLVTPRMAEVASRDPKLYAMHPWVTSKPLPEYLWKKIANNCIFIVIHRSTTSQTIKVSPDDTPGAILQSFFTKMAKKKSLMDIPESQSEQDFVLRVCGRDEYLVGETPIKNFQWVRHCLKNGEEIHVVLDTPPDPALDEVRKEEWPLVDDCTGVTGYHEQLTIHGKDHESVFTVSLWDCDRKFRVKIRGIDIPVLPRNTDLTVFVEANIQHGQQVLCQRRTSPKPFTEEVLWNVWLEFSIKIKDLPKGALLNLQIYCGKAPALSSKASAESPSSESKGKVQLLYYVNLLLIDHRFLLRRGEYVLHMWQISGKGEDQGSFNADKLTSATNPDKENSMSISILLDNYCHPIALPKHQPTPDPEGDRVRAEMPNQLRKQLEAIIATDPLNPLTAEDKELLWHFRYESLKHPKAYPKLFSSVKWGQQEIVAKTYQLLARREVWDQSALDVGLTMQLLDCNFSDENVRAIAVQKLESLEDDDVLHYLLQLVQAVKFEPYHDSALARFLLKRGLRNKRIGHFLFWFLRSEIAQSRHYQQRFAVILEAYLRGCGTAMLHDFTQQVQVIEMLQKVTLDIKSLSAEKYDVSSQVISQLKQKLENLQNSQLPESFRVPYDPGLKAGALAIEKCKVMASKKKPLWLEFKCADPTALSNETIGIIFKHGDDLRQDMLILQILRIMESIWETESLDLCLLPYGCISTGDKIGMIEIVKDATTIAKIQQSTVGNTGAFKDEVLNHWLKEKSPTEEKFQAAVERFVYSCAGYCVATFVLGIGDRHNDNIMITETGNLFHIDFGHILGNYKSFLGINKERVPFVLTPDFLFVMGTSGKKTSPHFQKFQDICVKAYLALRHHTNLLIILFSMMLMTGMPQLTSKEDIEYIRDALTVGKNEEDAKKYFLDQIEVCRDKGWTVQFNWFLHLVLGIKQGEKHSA
Sequence of PIK3CA (human) (P42336 whole entry, looked up): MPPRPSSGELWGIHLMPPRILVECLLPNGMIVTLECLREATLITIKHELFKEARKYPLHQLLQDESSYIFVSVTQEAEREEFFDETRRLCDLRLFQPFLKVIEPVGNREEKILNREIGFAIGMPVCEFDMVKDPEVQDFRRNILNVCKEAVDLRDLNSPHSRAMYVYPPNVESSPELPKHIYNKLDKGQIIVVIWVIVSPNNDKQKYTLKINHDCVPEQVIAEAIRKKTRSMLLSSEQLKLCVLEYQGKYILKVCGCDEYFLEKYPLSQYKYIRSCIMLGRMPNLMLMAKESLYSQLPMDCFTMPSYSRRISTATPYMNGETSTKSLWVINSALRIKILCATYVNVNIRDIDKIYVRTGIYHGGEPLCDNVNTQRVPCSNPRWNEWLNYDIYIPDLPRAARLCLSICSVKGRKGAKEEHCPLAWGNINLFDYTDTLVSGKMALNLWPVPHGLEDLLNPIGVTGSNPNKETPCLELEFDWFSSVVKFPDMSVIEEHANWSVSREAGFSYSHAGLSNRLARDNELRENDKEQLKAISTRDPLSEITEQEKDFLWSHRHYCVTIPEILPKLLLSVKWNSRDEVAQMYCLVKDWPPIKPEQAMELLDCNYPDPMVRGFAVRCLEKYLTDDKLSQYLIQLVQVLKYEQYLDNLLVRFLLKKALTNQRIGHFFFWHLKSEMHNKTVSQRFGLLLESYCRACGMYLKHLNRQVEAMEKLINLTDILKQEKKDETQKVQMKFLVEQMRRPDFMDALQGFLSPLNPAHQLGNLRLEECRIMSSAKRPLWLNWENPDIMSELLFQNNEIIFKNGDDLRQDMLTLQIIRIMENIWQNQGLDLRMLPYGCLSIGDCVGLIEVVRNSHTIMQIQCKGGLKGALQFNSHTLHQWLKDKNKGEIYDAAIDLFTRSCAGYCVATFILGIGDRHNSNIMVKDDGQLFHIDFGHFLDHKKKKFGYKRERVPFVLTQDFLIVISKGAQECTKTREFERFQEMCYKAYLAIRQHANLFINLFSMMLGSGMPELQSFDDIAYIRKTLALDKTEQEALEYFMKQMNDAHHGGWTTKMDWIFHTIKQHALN

Consider `Cc1ncc(-c2cccc3cc([C@H](C)Nc4nc(N)ncc4C#N)n(-c4cccc(F)c4)c(=O)c23)cn1`, for which the IC50 is below 0.1 µM on PIK3CD (Human), below 0.1 µM on PIK3CG (human) and above 10 µM at PIK3CB (Human).
Regarding `C[C@H](Nc1nc(N)ncc1-c1ncco1)c1cc2cccc(Cl)c2c(=O)n1-c1ccccc1`, the figures for the IC50 on PIK3CD (Human), against PIK3CG (human) and on PIK3CB (Human) were below 0.1 µM, below 0.1 µM and 0.1 to 1 µM, respectively.
Consider `C[C@H](Nc1nc(N)ncc1C#N)c1nc2cccc(Cl)c2c(=O)n1-c1ccccc1`, for which the IC50 was below 0.1 µM on PIK3CD (Human), below 0.1 µM on PIK3CG (human) and 0.1 to 1 µM against PIK3CB (Human).
With `COc1ccc(-c2cccc3cc([C@H](C)Nc4nc(N)ncc4C#N)n(C4CC4)c(=O)c23)cn1`, the values for the IC50 on PIK3CD (Human), against PIK3CG (human) and at PIK3CB (Human) were below 0.1 µM, below 0.1 µM and 0.1 to 1 µM, respectively.
On to `C#Cc1cccc2cc([C@H](C)Nc3nc(N)ncc3C#N)n(-c3ccccc3)c(=O)c12`, for which the IC50 against PIK3CD (Human) was below 0.1 µM; against PIK3CG (human), below 0.1 µM; against PIK3CB (Human) it was 0.1 to 1 µM.
Turning to `COc1cc(-c2cccc3cc([C@H](C)Nc4nc(N)ncc4-c4ccncc4)n(-c4ccccc4)c(=O)c23)ccn1`, the IC50 against PIK3CD (Human) is below 0.1 µM; against PIK3CG (human), below 0.1 µM; on PIK3CB (Human), above 10 µM.
In the case of `CCn1c([C@H](C)Nc2nc(N)ncc2C#N)cc2cccc(Cl)c2c1=O`, the IC50 on PIK3CD (Human), against PIK3CG (human) and against PIK3CB (Human) was below 0.1 µM each time.
For the compound `C[C@H](Nc1nc(N)ncc1C(=O)N(C)C)c1cc2cccc(Cl)c2c(=O)n1-c1ccccc1`, the IC50 on PIK3CD (Human) is below 0.1 µM; against PIK3CG (human), below 0.1 µM; at PIK3CB (Human) it was 0.1 to 1 µM.
As for `C[C@H](Nc1nc(N)ncc1C#N)c1cc2cccc(Cl)c2c(=O)n1-c1cc(F)ccc1F`, the IC50 at PIK3CD (Human) was below 0.1 µM; at PIK3CG (human) it was below 0.1 µM; at PIK3CB (Human) it was 0.1 to 1 µM.
Take `C[C@H](Nc1nc(N)ncc1C#N)c1cc2cccc(-c3cccc(F)c3)c2c(=O)n1-c1ccccc1`: the IC50 at PIK3CD (Human) is below 0.1 µM; against PIK3CG (human), below 0.1 µM; against PIK3CB (Human), 0.1 to 1 µM.
With `COc1cccc(-c2cccc3cc([C@H](C)Nc4nc(N)ncc4C#N)n(-c4ccccc4)c(=O)c23)c1`, the IC50 against PIK3CD (Human), at PIK3CG (human) and against PIK3CA (human) was below 0.1 µM each time.
As to `C[C@H](Nc1nc(N)ncc1C#N)c1cc2cccc(-c3cnc4ccccc4c3)c2c(=O)n1-c1cccc(F)c1`, the figures for the IC50 on PIK3CD (Human), at PIK3CG (human) and against PIK3CA (human) were below 0.1 µM, below 0.1 µM and 0.1 to 1 µM, respectively.
`C[C@H](Nc1nc(N)ncc1C#N)c1cc2cccc(CC#N)c2c(=O)n1-c1ccccc1`: the results for the IC50 at PIK3CD (Human), on PIK3CG (human) and on PIK3CA (human) were below 0.1 µM, below 0.1 µM and above 10 µM, respectively.
In the case of `C[C@H](Nc1nc(N)ncc1C#N)c1cc2cccc(-c3ccnnc3)c2c(=O)n1-c1cccc(F)c1`, the IC50 is below 0.1 µM against PIK3CD (Human), 0.1 to 1 µM at PIK3CG (human) and above 10 µM against PIK3CA (human).
On the same counts, the results for `C[C@H](Nc1nc(N)ncc1-c1cccs1)c1cc2cccc(Cl)c2c(=O)n1-c1ccccc1` are below 0.1 µM, below 0.1 µM and above 10 µM.
For the compound `Cc1ccc(-n2c([C@H](C)Nc3nc(N)ncc3C#N)cc3cccc(Cl)c3c2=O)cc1`, the IC50 at PIK3CD (Human) is below 0.1 µM; against PIK3CG (human), below 0.1 µM; on PIK3CA (human), above 10 µM.
For the compound `C[C@H](Nc1nc(N)ncc1C#N)c1cc2cccc(Cl)c2c(=O)n1-c1ccccc1`, the IC50 against PIK3CD (Human), against PIK3CG (human) and against PIK3CB (Human) was below 0.1 µM in each case.
As for `C[C@H](Nc1nc(N)ncc1-c1ccccn1)c1cc2cccc(Cl)c2c(=O)n1-c1ccccc1`, the IC50 was 0.1 to 1 µM against PIK3CD (Human), below 0.1 µM on PIK3CG (human) and above 10 µM on PIK3CA (human).
On to `C[C@H](Nc1nc(N)ncc1-c1ccsc1)c1cc2cccc(Cl)c2c(=O)n1-c1ccccc1`, for which the 50% inhibitory concentration (IC50) is below 0.1 µM at PIK3CD (Human), below 0.1 µM on PIK3CG (human) and above 10 µM at PIK3CA (human).
As for `C[C@H](Nc1nc(N)ncc1C#N)c1cc2cccc(-c3cncc(OC(F)F)c3)c2c(=O)n1-c1ccccc1`, the IC50 was below 0.1 µM at PIK3CD (Human), below 0.1 µM on PIK3CG (human) and above 10 µM against PIK3CB (Human).
With `C[C@H](Nc1nc(N)ncc1C#N)c1cc2cccc(-c3cccc(Cl)c3)c2c(=O)n1-c1ccccc1`, the IC50 was below 0.1 µM on PIK3CD (Human), below 0.1 µM against PIK3CG (human) and 0.1 to 1 µM against PIK3CA (human).
On to `Cc1cccc2cc([C@H](C)Nc3nc(N)ncc3C#N)n(-c3cccc(F)c3)c(=O)c12`, for which the IC50 is below 0.1 µM on PIK3CD (Human), below 0.1 µM on PIK3CG (human) and 0.1 to 1 µM at PIK3CB (Human).
Turning to `C[C@H](Nc1nc(N)ncc1C#N)c1cc2cccc(Cl)c2c(=O)n1-c1cccc(F)c1`, the IC50 against PIK3CD (Human) was below 0.1 µM; against PIK3CG (human) it was below 0.1 µM; against PIK3CB (Human) it was 0.1 to 1 µM.
On to `COc1cncc(-c2cccc3nc([C@H](C)Nc4nc(N)ncc4C#N)n(-c4ccccc4)c(=O)c23)c1`, for which the IC50 at PIK3CD (Human) is below 0.1 µM; on PIK3CG (human) it was below 0.1 µM; at PIK3CA (human) it was 0.1 to 1 µM.
